The values that follow come from US11447466B2, “Substituted indole compounds useful as inhibitors of TLR7/8/9” (BRISTOL-MYERS SQUIBB COMPANY, priority 2017, dated 2022).

Type in all cases: cell-based
Test [1] has as its target T1, human TLR9 (Homo sapiens, UniProt Q9NR96).
T1 construct: host or cells: HEK-Blue cells
T1 sequence (Q9NR96 26-1032): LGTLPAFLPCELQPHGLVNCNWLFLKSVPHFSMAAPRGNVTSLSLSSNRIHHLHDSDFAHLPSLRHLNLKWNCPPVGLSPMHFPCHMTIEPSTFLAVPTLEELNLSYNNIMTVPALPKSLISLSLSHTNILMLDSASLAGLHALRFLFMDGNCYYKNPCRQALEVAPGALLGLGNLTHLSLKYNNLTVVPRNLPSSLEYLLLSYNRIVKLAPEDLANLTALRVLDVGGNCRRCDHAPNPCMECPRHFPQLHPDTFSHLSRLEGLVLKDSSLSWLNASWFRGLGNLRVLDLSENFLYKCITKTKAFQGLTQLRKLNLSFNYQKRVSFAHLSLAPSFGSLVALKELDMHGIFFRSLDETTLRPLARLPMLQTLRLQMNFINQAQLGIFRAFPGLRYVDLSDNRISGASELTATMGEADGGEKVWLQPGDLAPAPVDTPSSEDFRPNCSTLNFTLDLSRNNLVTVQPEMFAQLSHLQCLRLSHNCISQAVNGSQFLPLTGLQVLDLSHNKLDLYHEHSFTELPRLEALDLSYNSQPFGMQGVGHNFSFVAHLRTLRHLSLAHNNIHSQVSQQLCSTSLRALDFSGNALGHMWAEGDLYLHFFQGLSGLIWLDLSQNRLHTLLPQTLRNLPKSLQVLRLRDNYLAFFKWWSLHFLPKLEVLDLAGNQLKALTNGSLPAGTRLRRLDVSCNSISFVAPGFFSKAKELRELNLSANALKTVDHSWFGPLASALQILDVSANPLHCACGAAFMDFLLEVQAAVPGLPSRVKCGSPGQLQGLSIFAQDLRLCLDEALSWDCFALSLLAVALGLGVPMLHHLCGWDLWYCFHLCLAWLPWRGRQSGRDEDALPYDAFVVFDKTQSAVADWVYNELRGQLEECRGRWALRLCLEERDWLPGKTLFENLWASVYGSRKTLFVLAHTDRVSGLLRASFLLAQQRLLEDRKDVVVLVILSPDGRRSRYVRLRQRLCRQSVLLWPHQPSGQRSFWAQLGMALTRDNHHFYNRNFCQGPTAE
The experiment in a line: TLR9 inhibition reporter assay (HEK-Blue SEAP reporter, ODN2006 stimulation). Conditions: HEK-Blue cells overexpressing human TLR9, SEAP reporter, ODN2006 5 nM, 22 hour incubation. Put shortly: (§1)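 Human TLR7/8/9 HEK-Blue reporter lines; dose range 0.05 nM–50 μM; 30 min RT preincubation; stimulus gardiquimod 7.5 μM / R848 15.9 μM / ODN2006 5 nM respectively; 22 h, 37 °C; SEAP detected colorimetrically.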
In general terms: In a reporter assay the amount or activity of a reporter protein is the signal.

Test [2] has as its target T2, human TLR8 (Homo sapiens, UniProt Q9NR97).
T2 construct: host or cells: HEK-Blue cells
T2 sequence (Q9NR97 27-1041): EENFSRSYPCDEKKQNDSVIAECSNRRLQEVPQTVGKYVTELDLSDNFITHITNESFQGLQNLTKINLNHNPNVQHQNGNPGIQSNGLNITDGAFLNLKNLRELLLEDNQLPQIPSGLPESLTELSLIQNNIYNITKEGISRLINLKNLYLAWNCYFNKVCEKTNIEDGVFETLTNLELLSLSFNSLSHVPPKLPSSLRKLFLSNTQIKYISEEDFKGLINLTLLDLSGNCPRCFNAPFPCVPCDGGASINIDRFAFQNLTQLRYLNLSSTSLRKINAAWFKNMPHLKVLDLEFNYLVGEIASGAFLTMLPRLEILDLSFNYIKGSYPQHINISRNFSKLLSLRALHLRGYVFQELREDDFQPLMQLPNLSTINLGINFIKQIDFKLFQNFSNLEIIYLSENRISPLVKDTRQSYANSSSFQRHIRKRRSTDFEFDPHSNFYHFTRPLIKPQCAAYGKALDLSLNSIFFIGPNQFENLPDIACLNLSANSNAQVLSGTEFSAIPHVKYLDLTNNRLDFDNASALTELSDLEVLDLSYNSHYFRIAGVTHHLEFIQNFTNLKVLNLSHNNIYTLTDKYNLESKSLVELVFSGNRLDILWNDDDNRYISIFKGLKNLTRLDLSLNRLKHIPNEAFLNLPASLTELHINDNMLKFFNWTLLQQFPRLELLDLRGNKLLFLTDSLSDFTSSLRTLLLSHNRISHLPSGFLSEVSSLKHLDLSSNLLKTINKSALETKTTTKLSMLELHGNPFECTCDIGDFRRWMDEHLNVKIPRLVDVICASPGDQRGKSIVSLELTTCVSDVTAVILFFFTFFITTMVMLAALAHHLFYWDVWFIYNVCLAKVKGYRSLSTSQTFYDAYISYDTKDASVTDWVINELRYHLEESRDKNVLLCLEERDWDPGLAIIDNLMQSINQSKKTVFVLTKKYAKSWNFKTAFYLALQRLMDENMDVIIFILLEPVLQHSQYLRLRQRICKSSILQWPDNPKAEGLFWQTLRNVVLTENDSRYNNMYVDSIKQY
The experiment in a line: TLR8 inhibition reporter assay (HEK-Blue SEAP reporter, R848 stimulation). To be noted: HEK-Blue cells overexpressing human TLR8, SEAP reporter, R848 15.9 μM, 22 hour incubation. The method, boiled down:
as §1

The target of test [3] is T3, human TLR7 (Homo sapiens, UniProt Q9NYK1).
T3 construct: host or cells: HEK-Blue cells
T3 sequence (Q9NYK1 27-1049): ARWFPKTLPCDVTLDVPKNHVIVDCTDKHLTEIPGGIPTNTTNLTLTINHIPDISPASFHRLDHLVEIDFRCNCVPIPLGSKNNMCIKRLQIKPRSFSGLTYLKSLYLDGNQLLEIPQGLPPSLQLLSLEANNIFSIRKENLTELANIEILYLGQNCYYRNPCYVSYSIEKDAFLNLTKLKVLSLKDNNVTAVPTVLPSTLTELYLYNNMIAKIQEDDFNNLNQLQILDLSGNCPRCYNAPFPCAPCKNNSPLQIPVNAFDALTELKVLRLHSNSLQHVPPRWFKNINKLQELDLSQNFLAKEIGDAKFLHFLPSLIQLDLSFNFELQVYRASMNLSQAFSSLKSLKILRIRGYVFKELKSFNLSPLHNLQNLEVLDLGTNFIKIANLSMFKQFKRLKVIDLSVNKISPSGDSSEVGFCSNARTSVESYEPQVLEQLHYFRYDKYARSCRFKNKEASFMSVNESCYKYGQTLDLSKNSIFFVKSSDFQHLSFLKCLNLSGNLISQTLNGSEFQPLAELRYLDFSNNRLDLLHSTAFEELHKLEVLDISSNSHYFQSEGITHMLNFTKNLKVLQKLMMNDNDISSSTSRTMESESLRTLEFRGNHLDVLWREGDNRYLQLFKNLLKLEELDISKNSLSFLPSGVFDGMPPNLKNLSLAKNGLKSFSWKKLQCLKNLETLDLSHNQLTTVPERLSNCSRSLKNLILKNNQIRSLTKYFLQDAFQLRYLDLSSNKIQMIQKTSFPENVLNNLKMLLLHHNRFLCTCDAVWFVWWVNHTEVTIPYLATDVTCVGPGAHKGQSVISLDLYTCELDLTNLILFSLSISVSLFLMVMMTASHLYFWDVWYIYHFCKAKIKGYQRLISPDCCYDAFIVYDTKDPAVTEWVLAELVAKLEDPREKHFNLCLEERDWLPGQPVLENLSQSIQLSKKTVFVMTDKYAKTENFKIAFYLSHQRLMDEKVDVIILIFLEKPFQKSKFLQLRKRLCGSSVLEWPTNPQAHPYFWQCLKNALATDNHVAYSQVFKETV
The experiment in a line: TLR7 inhibition reporter assay (HEK-Blue SEAP reporter, gardiquimod stimulation). To be noted: HEK-Blue cells overexpressing human TLR7, SEAP reporter, gardiquimod 7.5 μM, 22 hour incubation. Put shortly:
as §1

In the case of `Cc1cc(-c2[nH]c3ccc(C4CCN(C(=O)[C@@H]5C[C@@H](O)CN5C)CC4)cc3c2C(C)C)cn(C)c1=O` [Example 289, 5-(5-(1-((2S,4R)-4-hydroxy-1-methylpyrrolidine-2-carbonyl)piperidin-4-yl)-3-isopropyl-1H-indol-2-yl)-1,3-dimethylpyridin-2(1H)-one], the IC50 (in general, the concentration that inhibits the measured activity by half) stood at 5280 nM in test [1], 12.3 nM in test [2] and 5.9 nM in test [3].

On to `CC(C)CN1CCC(c2ccc3[nH]c(-c4cc(-c5cncnc5)c(=O)n(C)c4)c(C(C)C)c3c2)CC1` [Example 256, 5-(5-(1-isobutylpiperidin-4-yl)-3-isopropyl-1H-indol-2-yl)-1-methyl-3-(pyrimidin-5-yl)pyridin-2(1H)-one], for which the IC50 in test [1] is 1470 nM; in test [2], 1.7 nM; in test [3] it was 12.4 nM.

Take `Cc1cc(-c2[nH]c3ccc(C4CCN(C5CCOC5)CC4)cc3c2C(C)C)cn(C)c1=O` (stereo not drawn) [Example 180, 5-(3-isopropyl-5-(1-(tetrahydrofuran-3-yl)piperidin-4-yl)-1H-indol-2-yl)-1,3-dimethylpyridin-2(1H)-one]: the IC50 in test [1] turned out to be 5750 nM; in test [2], 8.2 nM; in test [3] it was 7 nM.

Turning to `Cc1cc(-c2[nH]c3ccc(C4CCN(C(=O)CN(C)C)CC4)cc3c2C(C)C)cn(Cc2ccccc2)c1=O` [Example 284, 1-benzyl-5-(5-(1-(dimethylglycyl)piperidin-4-yl)-3-isopropyl-1H-indol-2-yl)-3-methylpyridin-2(1H)-one], the IC50 in test [1] stood at 1660 nM; in test [2], 21.8 nM; in test [3] it was 6.5 nM.

On to `COc1cc(-c2[nH]c3ccc(C4CCN(C5COC5)CC4)cc3c2C(C)C)cn(C)c1=O` [Example 202, 5-(3-isopropyl-5-(1-(oxetan-3-yl)piperidin-4-yl)-1H-indol-2-yl)-3-methoxy-1-methylpyridin-2(1H)-one], for which the IC50 amounted to 5630 nM in test [1], 13.5 nM in test [2] and 11.3 nM in test [3].

Regarding `Cc1cc(-c2[nH]c3ccc(C4CCN(C5CCN(C)C5=O)CC4)cc3c2C(C)C)cn(C)c1=O` (stereo not drawn) [Example 127, 5-(3-isopropyl-5-(1-(1-methyl-2-oxopyrrolidin-3-yl)piperidin-4-yl)-1H-indol-2-yl)-1,3-dimethylpyridin-2(1H)-one], the IC50 in test [1] amounted to 33600 nM; in test [2] it was 5.2 nM; in test [3], 3.7 nM.

Consider `CCCN1CCC(c2ccc3[nH]c(-c4cc(-c5ccc(NC(C)=O)nc5)c(=O)n(C)c4)c(C(C)C)c3c2)CC1` [Example 335, N-(5′-(3-isopropyl-5-(1-propylpiperidin-4-yl)-1H-indol-2-yl)-1′-methyl-2′-oxo-1′,2′-dihydro-[3,3′-bipyridin]-6-yl)acetamide], for which the half-maximal inhibitory concentration (IC50) in test [1] is 529 nM; in test [2], 5.9 nM; in test [3], 2.4 nM.

As to `CNC(=O)CN1CCC(c2ccc3[nH]c(-c4cc(C)c(=O)n(CC(C)C)c4)c(C(C)C)c3c2)CC1` [Example 161, 2-(4-(2-(1-isobutyl-5-methyl-6-oxo-1,6-dihydropyridin-3-yl)-3-isopropyl-1H-indol-5-yl)piperidin-1-yl)-N-methylacetamide], the IC50 came to 8730 nM in test [1], 239 nM in test [2] and 50.5 nM in test [3].

Turning to `Cc1cc(-c2[nH]c3ccc(C4CCN([C@H]5COCC[C@@H]5O)CC4)cc3c2C(C)C)cn(C)c1=O` [Example 314, 5-(5-(1-((3S,4S)-4-hydroxytetrahydro-2H-pyran-3-yl)piperidin-4-yl)-3-isopropyl-1H-indol-2-yl)-1,3-dimethylpyridin-2(1H)-one], the IC50 in test [1] turned out to be 10100 nM; in test [2], 5.1 nM; in test [3], 5.2 nM.

Regarding `COc1cc(-c2[nH]c3ccc(C4CCN(C5COC5)CC4)cc3c2C(C)C)c(C)n(C)c1=O` [Example 217, 5-(3-isopropyl-5-(1-(oxetan-3-yl)piperidin-4-yl)-1H-indol-2-yl)-3-methoxy-1,6-dimethylpyridin-2(1H)-one], the 50% inhibitory concentration (IC50) is 10900 nM in test [1], 163 nM in test [2] and 659 nM in test [3].

On to `Cc1c(-c2[nH]c3ccc(C4CCN(CC5(O)CCOCC5)CC4)cc3c2C(C)C)cn(C)c(=O)c1C` [Example 319, 5-(5-(1-((4-hydroxytetrahydro-2H-pyran-4-yl)methyl)piperidin-4-yl)-3-isopropyl-1H-indol-2-yl)-1,3,4-trimethylpyridin-2(1H)-one], for which the values for the IC50 in test [1], in test [2] and in test [3] were 4330 nM, 1.6 nM and 10.9 nM, respectively.

`Cc1cc(-c2[nH]c3ccc(C4CCN(CCC(C)(C)O)CC4)cc3c2C(C)C)c(C)n(C)c1=O` [Example 74, 5-(5-(1-(3-hydroxy-3-methylbutyl)piperidin-4-yl)-3-isopropyl-1H-indol-2-yl)-1,3,6-trimethylpyridin-2(1H)-one]: the IC50 in test [1] worked out at 4330 nM; in test [2], 4.9 nM; in test [3] it was 20.9 nM.
